From patent US20250171423A1, “PHARMACEUTICAL COMPOUNDS FOR THE TREATMENT OF COMPLEMENT MEDIATED DISORDERS” (Achillion Pharmaceuticals, Inc., priority 2020, published 2025)
pIC50: −log10 of the molar value.

Target: T1, Human complement C1s enzyme (Homo sapiens, UniProt P09871)
T1 construct: purified from human serum, Complement Technology, Inc; purchased Complement Technology, Inc; host or cells: human serum
T1 sequence (P09871 438-688 limits assumed): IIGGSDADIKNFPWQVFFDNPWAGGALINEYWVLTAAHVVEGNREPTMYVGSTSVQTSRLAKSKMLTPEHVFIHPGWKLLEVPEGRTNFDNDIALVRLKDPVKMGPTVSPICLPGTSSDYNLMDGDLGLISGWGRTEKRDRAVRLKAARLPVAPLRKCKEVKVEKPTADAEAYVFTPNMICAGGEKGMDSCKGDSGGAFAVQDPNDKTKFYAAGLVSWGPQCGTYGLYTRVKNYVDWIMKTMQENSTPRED
T1 sequence (P09871 16-437 partner limits assumed): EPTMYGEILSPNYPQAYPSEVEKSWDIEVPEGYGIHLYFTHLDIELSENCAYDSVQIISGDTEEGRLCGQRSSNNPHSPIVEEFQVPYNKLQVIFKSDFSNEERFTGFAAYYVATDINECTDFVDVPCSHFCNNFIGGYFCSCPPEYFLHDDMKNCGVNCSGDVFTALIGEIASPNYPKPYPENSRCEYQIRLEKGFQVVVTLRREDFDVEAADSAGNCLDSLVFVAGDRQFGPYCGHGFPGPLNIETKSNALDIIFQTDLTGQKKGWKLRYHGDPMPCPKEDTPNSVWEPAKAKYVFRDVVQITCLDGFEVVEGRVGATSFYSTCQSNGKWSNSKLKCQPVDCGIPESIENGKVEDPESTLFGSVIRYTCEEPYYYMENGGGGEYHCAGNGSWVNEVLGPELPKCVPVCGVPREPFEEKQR
Experiment: Human C1s Enzyme Assay
Format: biochemical
Details: human C1s 1.16 nM, 5 min preincubation, substrate Z-L-Lys-SBzl 100 μM, A405; read-out: C1s Protease Activity
In short: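 C1s purified from human serum (1.16 nM final) was preincubated with compound for 5 min at room temperature in 50 mM Tris, 1 M NaCl, pH 7.5. Z-L-Lys-SBzl and DTNB were then added at 100 μM each, and A405 was followed for 30 min. IC50 came from nonlinear regression of reaction rates.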

Row | pIC50 | SMILES
1 | > 7.00 | Cc1ccccc1[C@@H]1C[C@@H](C(=O)NCc2cc(C(=N)N)cs2)N(C(=O)CNC(=O)CCCOc2ccccc2)C1 [Compound 155, (2S,4S)-N-((4-carbamimidoylthiophen-2-yl)methyl)-1-((4-phenoxybutanoyl)glycyl)-4-(o-tolyl)pyrrolidine-2-carboxamide]
2 | > 7.00 | N=C(N)c1csc(CNC(=O)[C@@H]2C[C@H](c3ccc(F)cc3)CN2C(=O)CNC(=O)CCCOc2ccccc2)c1 [Compound 159, (2S,4R)-N-((4-carbamimidoylthiophen-2-yl)methyl)-4-(4-fluorophenyl)-1-((4-phenoxybutanoyl)glycyl)pyrrolidine-2-carboxamide]
3 | > 7.00 | C[C@@]12C[C@@H]1N(C(=O)CNC(=O)c1ccc(OC3CCCCC3)cc1)[C@H](C(=O)NCc1cc(C(=N)N)cs1)C2 [Compound 160, (1S,3S,5S)-N-((4-carbamimidoylthiophen-2-yl)methyl)-2-((4-(cyclohexyloxy)benzoyl)glycyl)-5-methyl-2-azabicyclo[3.1.0]hexane-3-carboxamide]
4 | > 7.00 | C[C@@]12C[C@@H]1N(C(=O)CN1CCc3cc(Oc4ccccc4)ccc3C1=O)[C@H](C(=O)NCc1cc(C(=N)N)cs1)C2 [Compound 161, (1S,3S,5S)-N-((4-carbamimidoylthiophen-2-yl)methyl)-5-methyl-2-(2-(1-oxo-6-phenoxy-3,4-dihydroisoquinolin-2(1H)-yl)acetyl)-2-azabicyclo[3.1.0]hexane-3-carboxamide]
5 | > 7.00 | C[C@@]12C[C@@H]1N(C(=O)CNC(=O)c1ccc(Oc3cccnc3)cn1)[C@H](C(=O)NCc1cc(C(=N)N)cs1)C2 [Compound 162, (1S,3S,5S)-N-((4-carbamimidoylthiophen-2-yl)methyl)-5-methyl-2-((5-(pyridin-3-yloxy)picolinoyl)glycyl)-2-azabicyclo[3.1.0]hexane-3-carboxamide]
6 | > 7.00 | CC(C)O[C@@H]1C[C@@H](C(=O)N[C@H](C)c2cc(C(=N)N)cs2)N(C(=O)CNC(=O)CCCOc2ccccc2)C1 [Compound 166, (2S,4R)-N-((R)-1-(4-carbamimidoylthiophen-2-yl)ethyl)-4-isopropoxy-1-((4-phenoxybutanoyl)glycyl)pyrrolidine-2-carboxamide]
7 | > 7.00 | Cc1cccc([C@@H]2C[C@@H](C(=O)NCc3cc(C(=N)N)cs3)N(C(=O)CNC(=O)CCCOc3ccccc3)C2)c1 [Compound 171, (2S,4S)-N-((4-carbamimidoylthiophen-2-yl)methyl)-1-((4-phenoxybutanoyl)glycyl)-4-(m-tolyl)pyrrolidine-2-carboxamide]
8 | < 6.00 | N=C(N)c1csc([C@H](NC(=O)[C@@H]2CC3(CN2C(=O)CNC(=O)CCCOc2ccccc2)OCCO3)C2CCCC2)c1 [Compound 174, (S)-N-((R)-(4-carbamimidoylthiophen-2-yl)(cyclopentyl)methyl)-7-((4-phenoxybutanoyl)glycyl)-1,4-dioxa-7-azaspiro[4.4]nonane-8-carboxamide]

Further lines, the compound ahead of its results:

Row | SMILES | pIC50
9 | N=C(N)c1csc(CNC(=O)[C@@H]2C[C@@H](C(F)F)CN2C(=O)CNC(=O)c2ccc(Oc3ccccc3)cc2)c1 [Compound 151, (2S,4R)-N-((4-carbamimidoylthiophen-2-yl)methyl)-4-(difluoromethyl)-1-((4-phenoxybenzoyl)glycyl)pyrrolidine-2-carboxamide] | > 7.00
10 | C[C@@H](NC(=O)[C@@H]1C[C@]2(COCCNC(=O)COCCOCCNC(=O)COCCOCCNC(=O)CC[C@H](NC(=O)CCCCCCCCCCCCCCCCC(=O)O)C(=O)O)C[C@@H]2N1C(=O)CNC(=O)CCCOc1ccccc1)c1cc(C(=N)N)cs1 [Compound 152, (S)-1-((1S,3S,5R)-3-(((R)-1-(4-carbamimidoylthiophen-2-yl)ethyl)carbamoyl)-2-((4-phenoxybutanoyl)glycyl)-2-azabicyclo[3.1.0]hexan-5-yl)-27-carboxy-6,15,24,29-tetraoxo-2,8,11,17,20-pentaoxa-5,14,23,28-tetraazahexatetracontan-46-oic acid] | > 7.00
11 | C[C@@]12C[C@@H]1N(C(=O)CNC(=O)c1ccc(Oc3ccccn3)cc1)[C@H](C(=O)NCc1cc(C(=N)N)cs1)C2 [Compound 153, (1S,3S,5S)-N-((4-carbamimidoylthiophen-2-yl)methyl)-5-methyl-2-((4-(pyridin-2-yloxy)benzoyl)glycyl)-2-azabicyclo[3.1.0]hexane-3-carboxamide] | > 7.00
12 | C[C@@]12C[C@@H]1N(C(=O)CNC(=O)c1ccc(Oc3ccc(C(F)(F)F)cn3)cc1)[C@H](C(=O)NCc1cc(C(=N)N)cs1)C2 [Compound 154, (1S,3S,5S)-N-((4-carbamimidoylthiophen-2-yl)methyl)-5-methyl-2-((4-((5-(trifluoromethyl)pyridin-2-yl)oxy)benzoyl)glycyl)-2-azabicyclo[3.1.0]hexane-3-carboxamide] | > 7.00
13 | N=C(N)c1csc(CNC(=O)[C@@H]2C[C@@H](c3ccccc3)CN2C(=O)CNC(=O)CCCOc2ccccc2)c1 [Compound 156, (2S,4S)-N-((4-carbamimidoylthiophen-2-yl)methyl)-1-((4-phenoxybutanoyl)glycyl)-4-phenylpyrrolidine-2-carboxamide] | > 7.00
14 | N=C(N)c1csc(CNC(=O)[C@@H]2C[C@H](c3ccccc3)CN2C(=O)CNC(=O)CCCOc2ccccc2)c1 [Compound 157, (2S,4R)-N-((4-carbamimidoylthiophen-2-yl)methyl)-1-((4-phenoxybutanoyl)glycyl)-4-phenylpyrrolidine-2-carboxamide] | > 7.00
15 | C[C@@H](NC(=O)[C@@H]1C[C@@H](c2ccccc2)CN1C(=O)CNC(=O)CCCOc1ccccc1)c1cc(C(=N)N)cs1 [Compound 158, (2S,4S)-N-((R)-1-(4-carbamimidoylthiophen-2-yl)ethyl)-1-((4-phenoxybutanoyl)glycyl)-4-phenylpyrrolidine-2-carboxamide] | > 7.00
16 | N=C(N)c1csc(CNC(=O)[C@@H]2C[C@@H](c3ccc(F)cc3)CN2C(=O)CNC(=O)CCCOc2ccccc2)c1 [Compound 164, (2S,4S)-N-((4-carbamimidoylthiophen-2-yl)methyl)-4-(4-fluorophenyl)-1-((4-phenoxybutanoyl)glycyl)pyrrolidine-2-carboxamide] | > 7.00
17 | C[C@@]12C[C@@H]1N(C(=O)CNC(=O)CCCOc1cccc(C(=O)O)c1)[C@H](C(=O)NCc1cc(C(=N)N)cs1)C2 [Compound 165, 3-(4-((2-((1S,3S,5S)-3-(((4-carbamimidoylthiophen-2-yl)methyl)carbamoyl)-5-methyl-2-azabicyclo[3.1.0]hexan-2-yl)-2-oxoethyl)amino)-4-oxobutoxy)benzoic acid] | > 7.00
18 | CC(C)[C@@H](NC(=O)[C@@H]1CC2(CN1C(=O)CNC(=O)CCCOc1ccccc1)OCCO2)c1cc(C(=N)N)cs1 [Compound 167, (S)-N-((R)-1-(4-carbamimidoylthiophen-2-yl)-2-methylpropyl)-7-((4-phenoxybutanoyl)glycyl)-1,4-dioxa-7-azaspiro[4.4]nonane-8-carboxamide] | < 6.00
19 | C[C@@]12C[C@@H]1N(C(=O)CNC(=O)c1ccc(C3(c4ccccc4)COC3)cc1)[C@H](C(=O)NCc1cc(C(=N)N)cs1)C2 [Compound 168, (1S,3S,5S)-N-((4-carbamimidoylthiophen-2-yl)methyl)-5-methyl-2-((4-(3-phenyloxetan-3-yl)benzoyl)glycyl)-2-azabicyclo[3.1.0]hexane-3-carboxamide] | > 7.00
20 | C[C@@H](NC(=O)[C@@H]1C[C@]2(COCCCCCC(=O)O)C[C@@H]2N1C(=O)CNC(=O)CCCOc1ccccc1)c1cc(C(=N)N)cs1 [Compound 169, 6-(((1S,3S,5R)-3-(((R)-1-(4-carbamimidoylthiophen-2-yl)ethyl)carbamoyl)-2-((4-phenoxybutanoyl)glycyl)-2-azabicyclo[3.1.0]hexan-5-yl)methoxy)hexanoic acid] | > 7.00
21 | Cc1cccc([C@H]2C[C@@H](C(=O)NCc3cc(C(=N)N)cs3)N(C(=O)CNC(=O)CCCOc3ccccc3)C2)c1 [Compound 170, (2S,4R)-N-((4-carbamimidoylthiophen-2-yl)methyl)-1-((4-phenoxybutanoyl)glycyl)-4-(m-tolyl)pyrrolidine-2-carboxamide] | > 7.00
22 | C[C@@H](NC(=O)[C@@H]1C[C@@H](OC(F)F)CN1C(=O)CNC(=O)c1ccc(Oc2ccccc2)cc1)c1cc(C(=N)N)cs1 [Compound 172, (2S,4R)-N-((R)-1-(4-carbamimidoylthiophen-2-yl)ethyl)-4-(difluoromethoxy)-1-((4-phenoxybenzoyl)glycyl)pyrrolidine-2-carboxamide] | > 7.00
23 | CC(C)C[C@@H](NC(=O)[C@@H]1CC2(CN1C(=O)CNC(=O)CCCOc1ccccc1)OCCO2)c1cc(C(=N)N)cs1 [Compound 173, (S)-N-((R)-1-(4-carbamimidoylthiophen-2-yl)-3-methylbutyl)-7-((4-phenoxybutanoyl)glycyl)-1,4-dioxa-7-azaspiro[4.4]nonane-8-carboxamide] | < 6.00
